In patent publication US20070135462A1, “Combination therapy” (priority 2004, published 2007):

Assays:
[1] = tested on: HUVEC; test: HUVEC assay, basal endothelial cell proliferation; assay type: cell-based; conditions: Homo sapiens, read-out: IC50 for inhibition of basal endothelial cell proliferation
[2] = tested on: HUVEC; test: HUVEC assay, VEGF-stimulated endothelial cell proliferation; assay type: cell-based; conditions: Homo sapiens, read-out: IC50 for inhibition of VEGF-stimulated endothelial cell proliferation
[3] = tested on: Calu-6 tumour xenograft; test: Calu-6 tumour xenograft in vivo solid tumour model; conditions: once-daily oral, 28 days
[4] = tested on: range of models; test: anti-tumour activity in a range of models; assay type: in vivo; conditions: once-daily oral administration

Compound: COc1cc2c(Oc3ccc4[nH]c(C)cc4c3F)ncnc2cc1OCCCN1CCCC1 [AZD2171, 4-(4-fluoro-2-methyl-1H-indol-5-yloxy)-6-methoxy-7-(3-(pyrrolidin-1-yl)propoxy)quinazoline]
- IC50 [1]: > 500 nM
- IC50 [2]: 0.4 ± 0.2 nM
- inhibition of growth of Calu-6 tumour xenograft ([3]; 1.5 mg/kg/day, P<0.01): 49%
- inhibition of growth of Calu-6 tumour xenograft ([3]; 3 mg/kg/day, P<0.0001): 69%
- inhibition of growth of Calu-6 tumour xenograft ([3]; 6 mg/kg/day, P<0.0001): 91%
- anti-tumour activity [4]: broad-spectrum anti-tumour activity
